ChEMBL document CHEMBL1201862, “PubChem BioAssay data set” (2004)
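Each compound was tested at five concentrations against cells in 96-well plates for 48 hours. GI50 is the concentration that inhibits growth by half.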 Calls of active or inactive are those of the source. No stated cut-off is given here; in the data, active = GI50 up to about 1.1 µM and inactive = higher.

Tests used:
Test in all cases: NCI anticancer screen, dose series, 48 h
786-0 = system: 786-0
CAKI-1 = system: CAKI-1
DU-145 = system: DU-145
HCT-116 = system: HCT-116
HCT-15 = system: HCT-15
HT-29 = system: HT-29
Hs-578T = system: Hs-578T
KM12 = system: KM12
LOX IMVI = system: LOX IMVI
MDA-MB-231 = system: MDA-MB-231
MOLT-4 = system: MOLT-4
NCI-H460 = system: NCI-H460
NCI/ADR-RES = system: NCI/ADR-RES
OVCAR-5 = system: OVCAR-5
OVCAR-8 = system: OVCAR-8
RPMI-8226 = system: RPMI-8226
SF-268 = system: SF-268
SN12C = system: SN12C
SW-620 = system: SW-620
UACC-257 = system: UACC-257

Row | SMILES | GI50 (786-0) | GI50 (CAKI-1) | GI50 (DU-145) | GI50 (HCT-116) | GI50 (HCT-15) [µM] | GI50 (HT-29) | GI50 (Hs-578T) | GI50 (KM12) | GI50 (LOX IMVI) | GI50 (MDA-MB-231) | GI50 (MOLT-4) | GI50 (NCI-H460) | GI50 (NCI/ADR-RES) | GI50 (OVCAR-5) | GI50 (OVCAR-8) | GI50 (RPMI-8226) | GI50 (SF-268) | GI50 (SN12C) | GI50 (SW-620) | GI50 (UACC-257)
1 | CC(=O)NNc1nc(C)c(C(/C=C/c2ccc(NC(C)=O)cc2)=N/NS(=O)(=O)c2ccc(C)cc2)s1 | > 100 µM (inactive) | > 100 µM (inactive) | > 100 µM (inactive) | > 100 µM (inactive) | > 100 | > 100 µM (inactive) | > 100 µM (inactive) | > 100 µM (inactive) | > 100 µM (inactive) | > 100 µM (inactive) | > 100 µM (inactive) | > 100 µM (inactive) | > 100 µM (inactive) | > 100 µM (inactive) | > 100 µM (inactive) | > 100 µM (inactive) | > 100 µM (inactive) | > 100 µM (inactive) | > 100 µM (inactive) | > 100 µM (inactive)
2 | O=C(O)c1ccccc1C(=O)OCC1CCCN2CCCCC12 (stereo not given) | > 100 µM (inactive) | > 100 µM (inactive) | > 100 µM (inactive) | > 100 µM (inactive) | > 100 | > 100 µM (inactive) | > 100 µM (inactive) | > 100 µM (inactive) | > 100 µM (inactive) | > 100 µM (inactive) | > 100 µM (inactive) | > 100 µM (inactive) | > 100 µM (inactive) | > 100 µM (inactive) | > 100 µM (inactive) | > 100 µM (inactive) | > 100 µM (inactive) | > 100 µM (inactive) | > 100 µM (inactive) | > 100 µM (inactive)
3 | COc1ccc2c(NCCCCCCNc3c4ccccc4nc4cc(OC)ccc34)c3ccccc3nc2c1 | 0.0753 µM (active) | 0.367 µM (active) | 0.204 µM (active) | 0.0451 µM (active) | 1.29 | 0.029 µM (active) | 0.219 µM (active) | 0.0776 µM (active) | 0.0653 µM (active) | 0.067 µM (active) | 0.0146 µM (active) | 0.0272 µM (active) | 2.72 µM (inactive) | 0.186 µM (active) | 0.0853 µM (active) | 0.0573 µM (active) | 0.213 µM (active) | 0.0676 µM (active) | 0.0448 µM (active) | 0.731 µM (active)
4 | CC(=C(C(N)=O)C(N)=O)C1C=C(c2cccs2)CC(c2ccc(Cl)cc2)=C1O (stereo not given) | 36.7 µM (inactive) | 44.3 µM (inactive) | 63.5 µM (inactive) | 8.85 µM (inactive) | 20.9 | 39.8 µM (inactive) | > 100 µM (inactive) | 34.7 µM (inactive) | 19.8 µM (inactive) | > 100 µM (inactive) | 21.9 µM (inactive) | 69 µM (inactive) | 44.9 µM (inactive) | > 100 µM (inactive) | 73.6 µM (inactive) | 20.4 µM (inactive) | > 100 µM (inactive) | 32 µM (inactive) | 82.8 µM (inactive) | 14.5 µM (inactive)
5 | Clc1ccc(/C=N/C23CC4CC(CC(C4)C2)C3)cc1Cl | > 10 µM (inactive) | > 10 µM (inactive) | > 10 µM (inactive) | > 10 µM (inactive) | > 10 | > 10 µM (inactive) | > 10 µM (inactive) | > 10 µM (inactive) | > 10 µM (inactive) | > 10 µM (inactive) | > 10 µM (inactive) | > 10 µM (inactive) | > 10 µM (inactive) | > 10 µM (inactive) | > 10 µM (inactive) | > 10 µM (inactive) | > 10 µM (inactive) | > 10 µM (inactive) | > 10 µM (inactive) | > 10 µM (inactive)
6 | COc1ccc2c(c1)CCc1c-2n(CCN(C)C)c2ccc(OC)cc12 | 27.2 µM (inactive) | 22.1 µM (inactive) | 33.9 µM (inactive) | 5.33 µM (inactive) | 11.4 | 3.44 µM (inactive) | 21.4 µM (inactive) | 7.53 µM (inactive) | 7.89 µM (inactive) | 11.2 µM (inactive) | 10.2 µM (inactive) | 30.4 µM (inactive) | 18.5 µM (inactive) | 16.8 µM (inactive) | 20.7 µM (inactive) | 4.92 µM (inactive) | 22.6 µM (inactive) | 12.5 µM (inactive) | 5.37 µM (inactive) | 33 µM (inactive)
7 | NC(Cc1cccc([N+](=O)[O-])c1)C(=O)O (stereo not given) | > 100 µM (inactive) | > 100 µM (inactive) | > 100 µM (inactive) | > 100 µM (inactive) | > 100 | > 100 µM (inactive) | > 100 µM (inactive) | > 100 µM (inactive) | > 100 µM (inactive) | > 100 µM (inactive) | > 100 µM (inactive) | > 100 µM (inactive) | > 100 µM (inactive) | > 100 µM (inactive) | > 100 µM (inactive) | > 100 µM (inactive) | > 100 µM (inactive) | > 100 µM (inactive) | > 100 µM (inactive) | > 100 µM (inactive)
8 | N=C(N)N/N=C\c1c(-c2ccccc2)nc2sccn12 | 14.1 µM (inactive) | 16 µM (inactive) | 19 µM (inactive) | 15.2 µM (inactive) | 15.7 | 15.3 µM (inactive) | 14 µM (inactive) | 14.2 µM (inactive) | 16.3 µM (inactive) | 12.7 µM (inactive) | 18.5 µM (inactive) | 16.2 µM (inactive) | 18.2 µM (inactive) | 16.9 µM (inactive) | 16.5 µM (inactive) | 20 µM (inactive) | 16.4 µM (inactive) | 15.4 µM (inactive) | 12.9 µM (inactive) | 13.4 µM (inactive)
9 | N#CSC#Cc1ccc(C#CSC#N)cc1 | 17.2 µM (inactive) | 16.1 µM (inactive) | 15.1 µM (inactive) | 19 µM (inactive) | 19.4 | 20.1 µM (inactive) | 15.7 µM (inactive) | 19.4 µM (inactive) | 16.3 µM (inactive) | 17.8 µM (inactive) | 36.2 µM (inactive) | 19.9 µM (inactive) | 19.2 µM (inactive) | 19.2 µM (inactive) | 19.6 µM (inactive) | > 100 µM (inactive) | 21.5 µM (inactive) | 18 µM (inactive) | 19.2 µM (inactive) | 17.3 µM (inactive)
10 | CC(C)(C)OC(=O)N1C(C2=COc3ccccc3O2)=COc2cccnc21 | 1.83 µM (inactive) | 2.13 µM (inactive) | 1.33 µM (inactive) | 1.99 µM (inactive) | 1.77 | 1.91 µM (inactive) | 3.64 µM (inactive) | 1.78 µM (inactive) | 1.74 µM (inactive) | 1.81 µM (inactive) | 2.06 µM (inactive) | 1.74 µM (inactive) | 2 µM (inactive) | 1.65 µM (inactive) | 1.9 µM (inactive) | 1.55 µM (inactive) | 1.5 µM (inactive) | 1.71 µM (inactive) | 2.01 µM (inactive) | 1.75 µM (inactive)
11 | C/C=C(\C)C(=O)O[C@@H]1CC(C)(C)CC2C3=CCC4[C@]56CC[C@](O)(OC5)C(C)(C)C6CC[C@@]4(C)C3(C)CC[C@]21C(=O)O (stereo not given in full) | > 100 µM (inactive) | > 100 µM (inactive) | > 100 µM (inactive) | 79.6 µM (inactive) | 83.4 | 97.1 µM (inactive) | > 100 µM (inactive) | 82.4 µM (inactive) | 25.9 µM (inactive) | > 100 µM (inactive) | > 100 µM (inactive) | 78.2 µM (inactive) | > 100 µM (inactive) | > 100 µM (inactive) | > 100 µM (inactive) | 87.9 µM (inactive) | > 100 µM (inactive) | > 100 µM (inactive) | > 100 µM (inactive) | > 100 µM (inactive)
12 | CC(=O)N1C=Cc2c(c(C)c3c([nH]c4ccccc43)c2C)C1 | 2.41 µM (inactive) | 10.1 µM (inactive) | 11.5 µM (inactive) | 1.53 µM (inactive) | 2.1 | 4.58 µM (inactive) | 3.62 µM (inactive) | 2.9 µM (inactive) | 4.07 µM (inactive) | 3.2 µM (inactive) | 13.1 µM (inactive) | 1.23 µM (inactive) | 2.5 µM (inactive) | 9.25 µM (inactive) | 6.03 µM (inactive) | 14.7 µM (inactive) | 7.4 µM (inactive) | 3.8 µM (inactive) | 2.51 µM (inactive) | 15.1 µM (inactive)
13 | O=C1CCc2ccccc2O1 [DIHYDROCOUMARIN] | > 100 µM (inactive) | > 100 µM (inactive) | > 100 µM (inactive) | > 100 µM (inactive) | > 100 | > 100 µM (inactive) | > 100 µM (inactive) | > 100 µM (inactive) | > 100 µM (inactive) | > 100 µM (inactive) | > 100 µM (inactive) | > 100 µM (inactive) | > 100 µM (inactive) | > 100 µM (inactive) | > 100 µM (inactive) | > 100 µM (inactive) | > 100 µM (inactive) | > 100 µM (inactive) | > 100 µM (inactive) | > 100 µM (inactive)
14 | O=C1C(Cl)=C(N2CCN(C3=C(Cl)C(=O)c4ccccc4C3=O)CC2)C(=O)c2ccccc21 | 1.82 µM (inactive) | 1.79 µM (inactive) | 4.91 µM (inactive) | 1.44 µM (inactive) | 1.61 | 2.23 µM (inactive) | 2.22 µM (inactive) | 4.81 µM (inactive) | 1.71 µM (inactive) | 1.64 µM (inactive) | 0.232 µM (active) | 3.54 µM (inactive) | 1.92 µM (inactive) | 6.64 µM (inactive) | 1.69 µM (inactive) | 0.436 µM (active) | 2.62 µM (inactive) | 1.69 µM (inactive) | 1.17 µM (inactive) | 1.46 µM (inactive)
